For 15 compounds, Kd, IC50 and EC50 results are on record in patent publication US11242351B2, “Tricyclic inhibitors of the BCL6 BTB domain protein-protein interaction and uses thereof” (priority 2017, dated 2022).

Structures are written as SMILES. Like-named read-outs stand apart in the source and are kept apart here.

Experiment [1] has as its target BCL6 BTB domain (biotin-thrombin-BCL6 amino acids 1-129) (Homo sapiens (Human), UniProt P41182). Nature of the experiment: Surface Plasmon Resonance (SPR) assay. Type of experiment: binding. The conditions noted are these: Biacore T200, single cycle kinetic analysis. Here is the method: Surface Plasmon Resonance (SPR) Assay
SPR studies were performed using a Biacore™ T200 instrument (GE Health Sciences Inc.). […] The Biacore flow rate was set at 100 μl/min. […] Curve fitting and KD calculations were performed with the Biacore T200 Evaluation software (GE Health Sciences Inc).

The subject of experiment [2] is BCL6 reporter construct in SuDHL4-3×BCL6-TK-Luc cells. The experiment can be described thus: Cell-based luciferase assay (BCL6 reporter). The conditions noted are these: 48 h, read-out: Luc IC50. Here is the method:
Cell-Based Luciferase Assay:
A BCL6 reporter construct containing three copies of the consensus BCL6 binding site, the TK promoter, and the firefly luciferase gene was stably expressed in SuDHL4 cells after lentivirus infection and selection with Blasticidin. SuDHL4-3×BCL6-TK-Luc cells were seeded into a Viewplate 384-well assay dish at 15,000 cells/well in […] (Alpha-MEM high glucose containing 10% FBS, 25 mM HEPES, […] GlutaMAX, 100 µg/mL Normocin, and […] Gentamycin, Invitrogen). A HP D300 digital dispenser was used to dose cells with DMSO or test compounds across a 10-point range of concentrations (high dose of 10 μM), and cultures were grown in a humidified 5% CO2 incubator at 37° C. After two days, plates were removed from the incubator and equilibrated to room temperature. An equal volume of neolite reporter gene assay reagent was added to each well, and samples were processed according to the manufacturer's instructions (Perkin Elmer). The luminescent signal was measured using an Envision plate reader equipped with a US-Luminescence detector.

Experiment [3] concerns Karpas422 cells. The experiment can be described thus: Tumor cell growth inhibition assay. Type of experiment: cell-based. The conditions noted are these: Homo sapiens, KARPAS-422, 144 h, read-out: GI Karpas EC50. Here is the method:
Tumor Cell Growth Inhibition Assay:
Karpas422 cells were seeded into a 96-well plate at 2,000 cells/well in 150 μl medium (Alpha-MEM containing 10% FBS, […] Normocin, and […] Gentamycin, Invitrogen). A HP D300 digital dispenser was used to dose cells with DMSO or test compounds across a 10-point range of concentrations (high dose of 5 μM), and cultures were grown in a humidified 5% CO2 incubator at 37° C. After six days, plates were removed from incubator and equilibrated to room temperature. An equal volume of ATPlite assay reagent was added to each well, and samples were processed according to the manufacturer's instructions (Perkin Elmer). The luminescent signal was measured using an Envision plate reader equipped with a US-Luminescence detector.

Where [4] appears, read: SuDHL4-3×BCL6-TK-Luc cells, two days.
Where [5] appears, read: Karpas422 cells, six days, ATPlite.

As for `C[C@H]1CN(C2COC2)CCN1c1cc(NC(=O)Cn2cc(-c3cc(C(N)=O)c(O)c(Cl)c3F)c3c(=O)n4c(nc32)CCC4)c(Cl)cn1` [I-14, (S)-3-chloro-5-(1-(2-((5-chloro-2-(2-methyl-4-(oxetan-3-yl)piperazin-1-yl)pyridin-4-yl)amino)-2-oxoethyl)-4-oxo-4,6,7,8-tetrahydro-1H-dipyrrolo[1,2-a:2′,3′-d]pyrimidin-3-yl)-4-fluoro-2-hydroxy-benzamide], in experiment [1], the affinity, expressed as Kd, was 58.1 nM. Also, the 50% inhibitory concentration (IC50) in experiment [2] (setting [4]) amounted to 774 nM. Moreover, the half-maximal effective concentration (EC50) in experiment [3] (setting [5]) is 698 nM.

With `COc1c(O)c(C(N)=O)cc(-c2cn(CC(=O)Nc3cc(N4CCN(C)C[C@@H]4C)ncc3Cl)c3nc4n(c(=O)c23)CCC4)c1F` [I-17, (S)-5-(1-(2-((5-chloro-2-(2,4-dimethyl-piperazin-1-yl)pyridin-4-yl)amino)-2-oxoethyl)-4-oxo-4,6,7,8-tetrahydro-1H-dipyrrolo[1,2-a:2′,3′-d]pyrimidin-3-yl)-4-fluoro-2-hydroxy-3-methoxybenzamide], the affinity in experiment [1], expressed as Kd, was 49.6 nM. The IC50 in experiment [2] (setting [4]) turned out to be 850 nM. Besides, the EC50 in experiment [3] (setting [5]) amounted to 985 nM.

`COc1c(O)c(C(N)=O)cc(-c2cn(CC(=O)Nc3cc(N4CCOC[C@@H]4C)ncc3Cl)c3nc4n(c(=O)c23)CCC4)c1F` [I-18, (S)-5-(1-(2-((5-chloro-2-(3-methylmorpholino)pyridin-4-yl)amino)-2-oxoethyl)-4-oxo-4,6,7,8-tetrahydro-1H-dipyrrolo[1,2-a:2′,3′-d]pyrimidin-3-yl)-4-fluoro-2-hydroxy-3-methoxybenzamide] showed a Kd in experiment [1] of 34.3 nM. Further, the half-inhibitory concentration (IC50) in experiment [2] was determined as 818 nM. In addition, in experiment [3], the EC50 worked out at 688 nM.

`COc1c(O)c(C(N)=O)cc(-c2cn(CC(=O)Nc3cc(N4CCN(C5COC5)C[C@@H]4C)ncc3Cl)c3nc4n(c(=O)c23)CCC4)c1F` [I-19, (S)-5-(1-(2-((5-chloro-2-(2-methyl-4-(oxetan-3-yl)piperazin-1-yl)pyridin-4-yl)amino)-2-oxoethyl)-4-oxo-4,6,7,8-tetrahydro-1H-dipyrrolo[1,2-a:2′,3′-d]pyrimidin-3-yl)-4-fluoro-2-hydroxy-3-methoxybenzamide] registered a Kd in experiment [1] of 26.6 nM. The IC50 in experiment [2] (setting [4]) was determined as 501 nM. In addition, in experiment [3] (setting [5]), the EC50 came out at 513 nM.

Consider `C[C@H]1CN(C2COC2)CCN1c1cc(NC(=O)Cn2cc(-c3cc(C(N)=O)c(O)c(F)c3F)c3c(=O)n4c(nc32)CCC4)c(Cl)c(F)n1` [I-20, (S)-5-(1-(2-((3-chloro-2-fluoro-6-(2-methyl-4-(oxetan-3-yl)piperazin-1-yl)pyridin-4-yl)amino)-2-oxoethyl)-4-oxo-4,6,7,8-tetrahydro-1H-dipyrrolo[1,2-a:2′,3′-d]pyrimidin-3-yl)-3,4-difluoro-2-hydroxy-benzamide], for which the Kd in experiment [1] came to 3.96 nM. In addition, in experiment [2] (setting [4]), the concentration for half-maximal inhibition (IC50) came to 61.2 nM. The concentration for a half-maximal effect (EC50) in experiment [3] (setting [5]) came to 57.6 nM.

Consider `CC1CN(C)CC(C)N1c1cc(NC(=O)Cn2cc(-c3cc(C(N)=O)c(O)c(F)c3F)c3c(=O)n4c(nc32)CCC4)c(Cl)cn1` (stereo not drawn) [I-21, 5-(1-(2-((5-chloro-2-(2,4,6-trimethyl-piperazin-1-yl)pyridin-4-yl)amino)-2-oxoethyl)-4-oxo-4,6,7,8-tetrahydro-1H-dipyrrolo[1,2-a:2′,3′-d]pyrimidin-3-yl)-3,4-difluoro-2-hydroxy-benzamide], for which the Kd in experiment [1] is 25.6 nM. The IC50 in experiment [2] was 355 nM. Also, the EC50 in experiment [3] was found to be 329 nM.

Compound `CN(C)c1cc(NC(=O)Cn2cc(-c3cc(C(N)=O)c(O)c(F)c3F)c3c(=O)n4c(nc32)CCC4)c(Cl)c(F)n1` [I-22, 5-(1-(2-((3-chloro-6-(dimethylamino)-2-fluoropyridin-4-yl)amino)-2-oxoethyl)-4-oxo-4,6,7,8-tetrahydro-1H-dipyrrolo [1,2-a:2′,3′-d]pyrimidin-3-yl)-3,4-difluoro-2-hydroxybenzamide] registered a Kd in experiment [1] of 11.8 nM. In experiment [2] (setting [4]), the IC50 came out at 274 nM. Also, the EC50 in experiment [3] (setting [5]) was determined as 146 nM.

`CCN1CCN(c2cc(NC(=O)Cn3cc(-c4cc(C(N)=O)c(O)c(F)c4F)c4c(=O)n5c(nc43)CCC5)c(Cl)c(F)n2)[C@@H](C)C1` [I-23, (S)-5-(1-(2-((3-chloro-6-(4-ethyl-2-methyl-piperazin-1-yl)-2-fluoro-pyridin-4-yl)amino)-2-oxoethyl)-4-oxo-4,6,7,8-tetrahydro-1H-dipyrrolo [1,2-a:2′,3′-d]pyrimidin-3-yl)-3,4-difluoro-2-hydroxybenzamide]: the affinity in experiment [1], expressed as Kd, was 7.97 nM. In addition, in experiment [2] (setting [4]), the IC50 came out at 91.5 nM. In experiment [3] (setting [5]), the EC50 came out at 102 nM.

In the case of `C[C@H]1CN(CC2CC2)CCN1c1cc(NC(=O)Cn2cc(-c3cc(C(N)=O)c(O)c(F)c3F)c3c(=O)n4c(nc32)CCC4)c(Cl)c(F)n1` [I-24, (S)-5-(1-(2-((3-chloro-6-(4-(cyclopropylmethyl)-2-methylpiperazin-1-yl)-2-fluoropyridin-4-yl)amino)-2-oxoethyl)-4-oxo-4,6,7,8-tetrahydro-1H-dipyrrolo[1,2-a:2′,3′-d]pyrimidin-3-yl)-3,4-difluoro-2-hydroxy-benzamide], the Kd in experiment [1] came out at 12.3 nM. The IC50 in experiment [2] (setting [4]) came out at 152 nM. For the same compound, the EC50 in experiment [3] (setting [5]) turned out to be 134 nM.

In experiment [1], `COCCN1CCN(c2cc(NC(=O)Cn3cc(-c4cc(C(N)=O)c(O)c(F)c4F)c4c(=O)n5c(nc43)CCC5)c(Cl)c(F)n2)[C@@H](C)C1` [I-25, (S)-5-(1-(2-((3-chloro-2-fluoro-6-(4-(2-methoxyethyl)-2-methyl-piperazin-1-yl)pyridin-4-yl)amino)-2-oxoethyl)-4-oxo-4,6,7,8-tetrahydro-1H-dipyrrolo[1,2-a:2′,3′-d]pyrimidin-3-yl)-3,4-difluoro-2-hydroxy-benzamide] came in with a Kd of 5.64 nM. The IC50 in experiment [2] (setting [4]) is 78.7 nM. The EC50 in experiment [3] (setting [5]) amounted to 75.1 nM.

In experiment [1], `C[C@H]1CN(C2COC2)CCN1c1cc(NC(=O)Cn2cc(-c3cc(C(N)=O)c(O)c(Cl)c3F)c3c(=O)n4c(nc32)CCC4)c(Cl)c(F)n1` [I-26, (S)-3-chloro-5-(1-(2-((3-chloro-2-fluoro-6-(2-methyl-4-(oxetan-3-yl)piperazin-1-yl)pyridin-4-yl)amino)-2-oxoethyl)-4-oxo-4,6,7,8-tetrahydro-1H-dipyrrolo[1,2-a:2′,3′-d]pyrimidin-3-yl)-4-fluoro-2-hydroxy-benzamide] had an equilibrium dissociation constant (Kd) of 30.2 nM. The IC50 in experiment [2] (setting [4]) worked out at 585 nM. Moreover, in experiment [3] (setting [5]), the EC50 turned out to be 549 nM.

Consider `CN(C)c1cc(NC(=O)Cn2cc(-c3cc(C(N)=O)c(O)c(Cl)c3F)c3c(=O)n4c(nc32)CCC4)c(Cl)c(F)n1` [I-27, 3-chloro-5-(1-(2-((3-chloro-6-(dimethyl-amino)-2-fluoro-pyridin-4-yl)amino)-2-oxoethyl)-4-oxo-4,6,7,8-tetrahydro-1H-dipyrrolo[1,2-a:2′,3′-d]pyrimidin-3-yl)-4-fluoro-2-hydroxy-benzamide], for which, in experiment [1], binding was put at a Kd of 190 nM. The IC50 in experiment [2] came out at 1140 nM. For the same compound, in experiment [3], the EC50 came to 1630 nM.

For `CCN1CCN(c2cc(NC(=O)Cn3cc(-c4cc(C(N)=O)c(O)c(Cl)c4F)c4c(=O)n5c(nc43)CCC5)c(Cl)c(F)n2)[C@@H](C)C1` [I-28, (S)-3-chloro-5-(1-(2-((3-chloro-6-(4-ethyl-2-methylpiperazin-1-yl)-2-fluoropyridin-4-yl)amino)-2-oxoethyl)-4-oxo-4,6,7,8-tetra-hydro-1H-dipyrrolo [1,2-a:2′,3′-d]pyri-midin-3-yl)-4-fluoro-2-hydroxybenzamide], the Kd in experiment [1] was 135 nM. The IC50 in experiment [2] (setting [4]) stood at 1340 nM. For the same compound, the EC50 in experiment [3] (setting [5]) was determined as 779 nM.

`C[C@H]1CN(CC2CC2)CCN1c1cc(NC(=O)Cn2cc(-c3cc(C(N)=O)c(O)c(Cl)c3F)c3c(=O)n4c(nc32)CCC4)c(Cl)c(F)n1` [I-29, (S)-3-chloro-5-(1-(2-((3-chloro-6-(4-(cyclopropylmethyl)-2-methylpiperazin-1-yl)-2-fluoropyridin-4-yl)amino)-2-oxoethyl)-4-oxo-4,6,7,8-tetra-hydro-1H-dipyrrolo [1,2-a:2′,3′-d]pyrimi-din-3-yl)-4-fluoro-2-hydroxybenzamide] had a Kd in experiment [1] of 240 nM. Moreover, the IC50 in experiment [2] was determined as 2150 nM. For the same compound, the EC50 in experiment [3] was determined as 2590 nM.

For the compound `NC(=O)c1cc(-c2cn(CC(=O)Nc3cc(N4CCOCC4)c(F)cc3Cl)c3nc4n(c(=O)c23)CCC4)c(F)c(F)c1O` [I-30, 5-(1-(2-((2-chloro-4-fluoro-5-morpholino-phenyl)amino)-2-oxo-ethyl)-4-oxo-4,6,7,8-tetrahydro-1H-dipyrrolo [1,2-a:2′,3′-d]pyrimidin-3-yl)-3,4-difluoro-2-hydroxybenzamide], binding in experiment [1] was put at a Kd of 106 nM. Moreover, in experiment [2], the IC50 came out at 1110 nM. Further, the EC50 in experiment [3] was found to be 980 nM.
